# Measured values reported in PubChem BioAssay (NCI).
#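 Method: 48-hour compound exposure of cells in 96-well plates, five concentrations, linear interpolation of endpoints. TGI marks complete inhibition of growth.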
# Assays:
# Experiment in all cases: DTP human tumour cell line panel, 48 h
# LOX IMVI melanoma = test system: LOX IMVI melanoma
# MDA-MB-231 breast = test system: MDA-MB-231 breast
# HL-60(TB) leukemia = test system: HL-60(TB) leukemia
# OVCAR-3 ovarian = test system: OVCAR-3 ovarian
# SF-539 CNS = test system: SF-539 CNS
# SK-OV-3 ovarian = test system: SK-OV-3 ovarian
# MCF7 breast = test system: MCF7 breast
# EKVX NSCLC = test system: EKVX NSCLC
# CCRF-CEM leukemia = test system: CCRF-CEM leukemia
# SW-620 colon = test system: SW-620 colon
# SK-MEL-2 melanoma = test system: SK-MEL-2 melanoma
# A498 renal = test system: A498 renal
# SF-295 CNS = test system: SF-295 CNS
# MDA-MB-435 = test system: MDA-MB-435
SMILES,TGI (LOX IMVI melanoma) [µM],TGI (MDA-MB-231 breast) [µM],TGI (HL-60(TB) leukemia) [µM],TGI (OVCAR-3 ovarian) [µM],TGI (SF-539 CNS) [µM],TGI (SK-OV-3 ovarian) [µM],TGI (MCF7 breast) [µM],TGI (EKVX NSCLC) [µM],TGI (CCRF-CEM leukemia) [µM],TGI (SW-620 colon) [µM],TGI (SK-MEL-2 melanoma) [µM],TGI (A498 renal) [µM],TGI (SF-295 CNS) [µM],TGI (MDA-MB-435) [µM]
O=C(O)c1ccccc1/C=N\NC1=NCCN1,> 100,> 100,> 100,> 100,> 100,> 100,> 100,> 100,> 100,> 100,> 100,> 100,> 100,> 100
CC(C)[Si]1(C(C)C)OCC2OC(n3ccc(=O)[nH]c3=O)C(O)(CO)C2O[Si](C(C)C)(C(C)C)O1 (centres undefined),30.7,26.7,> 100,29.4,32.2,30.2,29.2,27.4,30.7,33.8,31,36.1,28.5,31.6
Cn1c(=O)n(CC(Br)CBr)c(=O)n(CC(Br)CBr)c1=O (centres undefined),34.9,> 100,58,> 100,61.1,> 100,> 100,88.7,66.9,> 100,> 100,> 100,> 100,> 100
Cc1[nH]c2ccccc2c1C=Nc1ccc(Oc2ccccc2)cc1,32.8,32.2,32.3,27.6,33,32,39.7,27.4,28.9,42.6,34.3,37,29.1,31.8
COC(=O)C1=C(C)NC(C)=C([N+](=O)[O-])C1c1cccc(NO)c1 (centres undefined),15.5,17,5.57,19.5,37,> 85.6,27.2,> 61.5,> 22.9,16.5,> 43.8,70,23.1,5.3
COc1cc2c(c(OC)c1OC)C(=O)CC2N (centres undefined),> 100,> 100,> 100,> 100,> 100,> 100,> 100,> 100,> 100,> 100,> 100,> 100,> 100,> 100
